Patent US12257290B2, “PIC1 inhibition of myeloperoxidase oxidative activity in an animal model” (priority 2018, dated 2025)
Ends that are not written are not given here.

Experiments:
[1] = tested on: human neutrophils; assay: Immune complex-activated serum-initiated NET formation by human neutrophils (fluorescence microscopy, PicoGreen free DNA); format: cell-based; details: for decrease of free DNA (PicoGreen): immune complex-activated sera + hydrogen peroxide
Procedure: Neutrophils from the blood of healthy volunteers were purified from heparinized blood by Hypaque-Ficoll step gradient centrifugation, dextran sedimentation, and hypotonic lysis, as previously described.
A Neutrophil Extracellular Trap assay was performed in a microtiter plate as follows. The formation of NETs was induced by incubating 2.0×10^5 neutrophils in a 96 well tissue culture plates with RPMI media alone, or adding 0.05% of H2O2, or 12 nM PMA, or 8 μg/ml MPO, or PA-dPEG24 at various concentrations. For immune complex sera induced NET formation, activated sera was made by adding 5 μl of ovalbumin-anti-ovalbumin immune complex to 5% NHS in 0.3 ml of GVBS^++. This combination was allowed to incubate for 30 minutes at 37° C., and then 0.05 ml was added to the neutrophils in RPMI. Cells were then incubated for 1.5 hours at 37° C. in 5% CO2 incubator.
NET formation was quantitatively assayed as follows. Free DNA was measured by PicoGreen in the supernatant recovered from the NET microtiter plate well assay. Five hundred units of […] (Fisher) were added to each well to allow for digestion of released extracellular DNA for 10 minutes in 37° C. incubator. The preparation was then aliquoted into an adjacent well and mixed 1:1 with prepared PICO green reagent (Fisher). The fluorescence was then quantified on a BioTek microplate reader at Excitation 485 nm/Emission 528 nm.
NET formation was assayed by fluorescence microscopy. […]
PA-dPEG24 inhibits immune complex-initiated NET formation by human neutrophils. A potential relationship between immune complex-initiated complement-activated human sera and NET formation by human neutrophils was evaluated. […] The immune complex-initiated complement-activated human sera was then incubated with purified human neutrophils resulting in NET formation quantified by free DNA measurement with PicoGreen. The relative contribution of immune complexes was initially evaluated by themselves compared with immune complex-initiated complement-activated human sera for generation of NETs. […]

[2] = tested on: complement activation in normal human serum (NHS); assay: Ovalbumin-antiovalbumin immune complex-initiated complement activation in normal human serum (C5a, iC3b, SC5b-9 ELISA); format: biochemical
Procedure: Immune complex activation of NHS was performed as follows. NHS was stimulated with three different types of immune complexes (IC) to induce complement activation. Heat-aggregated IgG was generated by incubating intravenous immune globulin at 50 mg/ml at 63° C. for 30 min [26]. Ovalbumin-antiovalbumin immune complexes were made by incubating 0.01 ml anti-ovalbumin antibody with an equal volume of ovalbumin, at 0.25 mg/nil, at 37° C. for 30 minutes and then storing at 4° C. overnight. C1 immune complexes were formed by incubating 0.02 ml anti-C1q goat sera with 5 μl of C1, at 200 μg/ml, at 30° C. for 30 minutes and then placing in an ice water bath. For C5a and C5b-9 assays, activation of NHS was performed by pre-incubating 5% NHS with titrating concentrations of PA-dPEG24 in 0.3 ml of GVBS^++ buffer for 30 minutes at room temperature. […]
ELISA was performed as follows. […] Colorimetric detection was performed with TMB, stopped with H2SO4 and read on a BioTek Synergy HT plate reader at 450 nm.
To provide confirmation of the results with heat-aggregated IgG, the antigen-antibody immune complex most often utilized in animal models of complement activation, ovalbumin and antiovalbumin [27, 28], was then tested. The ovalbumin-antiovalbumin immune complexes were used to stimulate complement activation in NHS and the same three effectors, C5a, iC3b and C5b-9, were measured. […]

Substance: IALILEPICCQERAA-dPEG24 (cysteine pairing not given here) [PA-dPEG24, 15-amino acid PEGylated peptide, 24 PEG moieties at the C-terminus]
- decrease of free DNA (PicoGreen) ([1]; 2.2 mM PA-dPEG24, P=0.037): 23%
- decrease of free DNA (PicoGreen) ([1]; 4.5 mM PA-dPEG24, P<0.001): 3 fold
- NETs identified by fluorescence microscopy ([1]; 5 mM PA-dPEG24, immune complex-initiated complement-activated sera): no NETs were identified
- measured SC5b-9 ([2]; 2 mM PA-dPEG24): at the lower limit of detection
- PA-dPEG24 concentration giving statistically significant inhibition of each complement effector (C5a, iC3b, C5b-9) ([2]; ovalbumin-antiovalbumin in NHS, P<0.03 vs immune complex alone): ≥ 0.25 mM
